Test results from patent US9649289B1, “Method and composition for treating dysbiosis and related disease states” (BioAvivus, LLT, priority 2016, dated 2017).

Experiment: Median particle size of salsalate before and after Microfluidics homogenizer passes
Assay type: physicochemical
From the text: Using a Microfluidics® Homogenizer 40, passes with the device take the median particle size of salsalate FIG. 1 from about 40 microns down to about 2.4 microns, as shown in FIG. 2. The resulting salsalate is formulated into unit dose oral dosages, as noted above.

O=C(Oc1ccccc1C(=O)O)c1ccccc1O [salsalate]
median particle size (after 40 passes with Microfluidics Homogenizer (micronized salsalate of the invention)): about 2.4 microns
median particle size (after 40 passes with Microfluidics Homogenizer (micronized salsalate of the invention), listed as Salsalate): 2.4 microns
median particle size (starting (regular) salsalate, before homogenization): about 40 microns
